For one assay, the target named is T1, KCNQ2/3 heteromultimers (Rattus norvegicus, UniProt O88943+O88944).
T1 construct: endogenous in cells; host or cells: PC-12 cells differentiated with NGF-7s; no transfection described
The assay can be described thus: cell-based Rb+ efflux assay in PC-12 cells. Conditions: Rb+ efflux cellular assay. How it is done:
Compounds of this invention formula were evaluated for activity toward potassium channels in a cell-based Rb^+ efflux assay. This cellular bioassay is believed to faithfully represent the M channel activities identified with KCNQ2/3 heteromultimers. […] Additionally, antiseizure activity in vivo was evaluated in a mouse maximal electroshock seizure (MES) model, and neurotoxicities were determined from a rotorod neurocognitive motor impairment model and open field observation.
PC-12 cells were grown at 37° C. and 5% CO2 in DMEM/F12 Medium (Dulbecco's Modified Eagle Medium with Nutrient Mix F-12, available from Invitrogen of Carlsbad, Calif.), supplemented with 10% horse serum, 5% fetal bovine serum, 2 mM glutamine, 100 U/ml penicillin, and 100 U/ml streptomycin. They were plated in poly-D-lysine-coated 96-well cell culture microplates at a density of 40,000 cells/well and differentiated with 100 ng/ml NGF-7s for 2-5 days. For the assay, the medium was aspirated, and the cells were washed once with 0.2 ml wash buffer (25 mM HEPES, pH 7.4, 150 mM NaCl, 1 mM MgCl2, 0.8 mM NaH2PO4, 2 mM CaCl2). The cells were then loaded with 0.2 ml Rb^+ loading buffer (wash buffer plus 5.4 mM […], 5 mM glucose) and incubated at 37° C. for 2 h. Attached cells were washed quickly three times with buffer (same as Rb^+ loading buffer, but containing 5.4 mM KCl instead of RbCl) to remove extracellular Rb^+. Immediately following the wash, 0.2 ml of depolarization buffer (wash buffer plus 15 mM KCl solution) with or without compounds was added to the cells to activate efflux of potassium ion channels. After incubation for 10 min at room temperature, the supernatant was carefully removed and collected. Cells were lysed by the addition of 0.2 ml of lysis buffer (depolarization buffer plus 0.1% Triton X-100) and the cell lysates were also collected. If collected samples were not immediately analyzed for Rb^+ contents by atomic absorption spectroscopy (see below), they were stored at 4° C. without any negative effects on subsequent Rb^+ analysis.
The concentrations of Rb^+ in the supernatants (Rb^+Sup) and the cell lysates (Rb^+Lys) were quantified using an ICR8000 flame atomic absorption spectrometer (Aurora Biomed Inc., Vancouver, B.C.) under conditions defined by the manufacturer. Samples 0.05 ml in volume were processed automatically from microtiter plates by dilution with an equal volume of Rb^+ sample analysis buffer and injection into an air-acetylene flame. The amount of Rb^+ in the sample was measured by absorption at 780 nm using a hollow cathode lamp as light source and a PMT detector. A calibration curve covering the range 0-5 mg/L Rb^+ in sample analysis buffer was generated with each set of plates. The percent Rb^+ efflux (F) was defined by F=[Rb^+Sup/(Rb^+Sup+Rb^+Lys)]×100%. […] The efflux (F) and compound concentration relationship was plotted to calculate an EC50 value, a compound's concentration for 50% of maximal Rb^+ efflux. Seizure Model Tests

Assay [1] has as its system maximal electroshock seizure. Put plainly: mouse maximal electroshock seizure (MES) test. It is filed as in vivo. The conditions noted are these: ip dosing of 12.5 mg/kg. Further details: key: A: active; B: inactive. The source says:
(§1) The MES testing protocol is based on procedures established at the National Institute of Neurological Disorders and Stroke in conjunction with the Anticonvulsant Screening Program (ASP) at the University of Utah (White, H. S., Woodhead, J. H., Wilcox, K. S., Stables, J. P., Kupferberg, H. J and Wolf, H. H. 2002. “General Principles: Discovery and Preclinical Development of Antiepileptic Drugs,” in Antiepileptic Drugs, 5th Edition, R. H. Levy, ed.; R. H. Mattson, B. S. Meldrum, and E. Perucca. Philadelphia, Lippincott Williams & Wilkins.), The goal of the test is to rapid identify and characterize the in vivo anticonvulsant activity of any compounds that have been shown active in PC-12 cellular based Rb^+ efflux assay.
(§2) Adult male CF-1 albino mice (18-25 g, Charles River Laboratories) are […] used for MES screening of compounds. Male Sprague-Dawley albino rats (100-125 g, Charles River Laboratories) are also used to test anticonvulsant compounds. Animals are permitted to rest and recover from transit for at least 48 hr prior to experimentation. Animals are used for AED testing only once. In some instances, the animals can be anesthetized prior to blood collection or whole brain extraction for pharmacokinetic assay. All animals are maintained and handled as outlined in standard animal care guidelines.
(§3) In the experiments, testing compounds are prepared as suspensions in 0.5% methyl cellulose (Sigma, Cat # M0512, Viscosity 4000 cP at 20° C.) in water, regardless of solubility. Dry powder compounds are initially ground with a glass rod in a test tube in several drops of methyl cellulose to create a paste and to break down any large chunks. After several minutes of grinding, the volume of the suspension is increased to the final concentration desired. The suspension is then sonicated using a Branson sonicator model 3510 in a water bath at room temperature for 15 minutes. Compound suspensions are further vortexed prior to animal dosing. In some of the cases, DMSO is used to initially solubilize compounds in small volumes and then this solution is added to the 0.5% methyl cellulose solution, in order to create more even and less aggregated compound suspensions. The final concentration of DMSO is 3.75%, an amount with no apparent toxicity or neuroprotective effects in our usual rotarod and MES tests. Methyl cellulose/DMSO compound suspensions are identically prepared for intraperitoneally (i.p.)dosing to mice or orally (p.o.) dosing to rats.
Initially the animals are weighed with an electronic scale and then marked. Data recording sheets are generated for each compound assessment. Mice or rats are dosed with the compound suspension at 0.01 mL/g of body weight. The typical injection volume range is between 180-250 μl for mice. Compounds are dosed by i.p. to mice using a 25 or 22 gauge needle, depending on the viscosity of the suspension. Rats are p.o. dosed using a flexible feeding tube, typically starting at a compound dose of 5 mg/kg.
A Rodent Electroconvulsive Stimulator (Model 200, Hamit-Darvin-Freesh, Snow Canyon Clinic, Ivins, Utah) is used for MES testing. A 60-Hz alternating current (50 mA for mice; 150 mA for rats) is delivered for 0.2 seconds through corneal electrodes to the mice. A drop of 0.5% tetracaine (Sigma, Cat. # T-7508) solution is placed on the eye prior to current delivery. The electrodes are subsequently placed gently onto the eyes of the animal and the electrical shock is initiated by triggering through a foot-pedal activator. The animals are restrained by hand and gently released as the shock is delivered and the seizure commences. Animals are monitored for hind limb tonic extension as the end point for this test. Current delivery is recorded as a measure of overall seizure-induction potential. Electrical current delivery can vary from approximately 30-55 mA (mice) or 90-160 mA (rats) depending on impedance in the animal and quality of the current delivery (i.e. correct placement of the electrodes on the cornea). […]
(In general: Protection in the maximal electroshock model is a classic sign of anticonvulsant action.)

Assay [2] relates to maximal electroshock seizure. Put plainly: rat maximal electroshock seizure (MES) test. It is filed as in vivo.
Excerpt: as §1, §2
as §3, with “rats. […]” for “rats.”
A Rodent Electroconvulsive Stimulator (Model 200, Hamit-Darvin-Freesh, Snow Canyon Clinic, Ivins, Utah) is used for MES testing. […] Animals are monitored for hind limb tonic extension as the end point for this test. Current delivery is recorded as a measure of overall seizure-induction potential. […]

Bounds are passed on as bounds.

As usually defined, the EC50 is the concentration at which the effect is half-maximal. What is called ED50 is the dose at which the effect has come halfway, by size or by number of responders. Regarding `Cc1cc2c(c(C)c1NC(=O)CC(C)(C)C)CCC2Nc1ccc(C(F)(F)F)cc1` (single isomer, unassigned; (-)) [Example 15, (−) N-(4,6-dimethyl-1-(4-(trifluoromethyl)phenylamino)-2,3-dihydro-1H-inden-5-yl)-3,3-dimethylbutanamide], the half-maximal effective concentration (EC50) on KCNQ2/3 heteromultimers is at most 1 nM. In addition, the “Mouse MES test” value in assay [1] is on record as “A”. The ED50 in assay [2] was under 20 mg/kg.
On the same counts, the results for `Cc1cc2c(c(C)c1NC(=O)CC(C)(C)C)CCC2Nc1ccc(F)cc1` (centres unmarked) [Example 11, N-(1-(4-fluorophenylamino)-4,6-dimethyl-2,3-dihydro-1H-inden-5-yl)-3,3-dimethylbutanamide] are 1 to 10 nM, “A” and under 20 mg/kg.
On KCNQ2/3 heteromultimers, `Cc1cc2c(c(C)c1NC(=O)CC(C)(C)C)CCCC2Nc1ccc(F)cc1` (single isomer, unassigned; (-)) [Example 3, (−)N-(5-(4-fluorophenylamino)-1,3-dimethyl-5,6,7,8-tetrahydronaphthalen-2-yl)-3,3-dimethylbutanamide] showed an EC50 of 1 to 10 nM. The “Mouse MES test” value in assay [1] is “A”.
On the same counts, the results for `Cc1cc2c(c(C)c1NC(=O)CC(C)(C)C)CCC2Nc1ccc(C(F)(F)F)nc1` (centres unmarked) [Example 24, N-(1-(6-trifluoromethylpyridin-3-ylamino)-4,6-dimethyl-2,3-dihydro-1H-inden-5-yl)-3,3-dimethylbutanamide] are 10 to 50 nM and “A”.
As to `Cc1cc2c(c(C)c1NC(=O)CC(C)(C)C)CCC2Nc1ccc(F)cc1` (single isomer, unassigned; (-)) [Example 12, (−) N-(1-(4-fluorophenylamino)-4,6-dimethyl-2,3-dihydro-1H-inden-5-yl)-3,3-dimethylbutanamide], the EC50 at KCNQ2/3 heteromultimers is at most 1 nM. Also, in assay [1], the “Mouse MES test” value is “A”. The same compound showed a median effective dose (ED50) in assay [2] of under 20 mg/kg.
`Cc1cc2c(c(C)c1NC(=O)CC(C)(C)C)CCCC2Nc1ccc(Cl)cc1` (centres unmarked) [Example 7, N-(1,3-dimethyl-5-(4-chlorophenylamino)-5,6,7,8-tetrahydronaphthalen-2-yl)-3,3-dimethylbutanamide]: the EC50 on KCNQ2/3 heteromultimers lay in the range of 1 to 10 nM. Moreover, the “Mouse MES test” value in assay [1] is “A”.
Taken in the same sequence, the figures for `Cc1cc2c(c(C)c1NC(=O)CC(C)(C)C)CCC2Nc1ccc(F)cc1` (single isomer, unassigned; (+)) [Example 13, (+) N-(1-(4-fluorophenylamino)-4,6-dimethyl-2,3-dihydro-1H-inden-5-yl)-3,3-dimethylbutanamide] were 1 to 10 nM and “A”.
In the case of `Cc1cc2c(c(C)c1NC(=O)CC(C)(C)C)CCC2Nc1ccc(C(F)(F)F)cc1` (centres unmarked) [Example 14, N-(4,6-dimethyl-1-(4-(trifluoromethyl)phenylamino)-2,3-dihydro-1H-inden-5-yl)-3,3-dimethylbutanamide], at KCNQ2/3 heteromultimers, the EC50 lay within 1 to 10 nM. For the same compound, in assay [1], the “Mouse MES test” value is recorded as “A”. In assay [2], this compound came in with a 50% effective dose (ED50) of under 20 mg/kg.

Values taken from patent US8030518B2, “1,4 diamino bicyclic retigabine analogues as potassium channel modulators” (Valeant Pharmaceuticals International, priority 2006, dated 2011).
